Experimental data taken from patent publication US3932619A, “Metabolite A-27106 and processes for its preparation and use” (Eli Lilly and Company, priority 1974, dated 1976).
Where a name gives a salt, the structure may show the parent alone.

What was measured:
[1] = Electrometric titration (pKa); format: physicochemical; conditions: pH 8; electrometric titration in water, initial pH of 8
From the text: The acid form of metabolite A-27106 is a white amorphous solid, having a molecular weight of about 832.

[2] = test system: mice; assay: Acute intraperitoneal toxicity in groups of six mice; format: in vivo; conditions: for mice died: six mice
Method: In tests when metabolite A-27106 sodium salt was administered intraperitoneally to groups of six mice each:
In similar tests, when monensin sodium salt was administered intraperitoneally to groups of six mice each: […]

[3] = test system: rumen fluid; assay: Volatile fatty acid production in incubated diluted rumen fluid; set-up: species or system steer; conditions: 16 hours, 38°C.
From the text: Rumen fluid is obtained from a steer with a surgically-installed fistula opening into the rumen. The steer is maintained on a high-grain ration, the composition of which follows:
A sample of rumen fluid is strained through four layers of cheesecloth, and the filtrate is collected. The particulate matter retained by the cheesecloth is resuspended in enough physiological buffer to return it to the original volume of the rumen fluid, and this suspension is strained again. The buffer used has the following composition:
The two filtrates are combined and allowed to stand until particulate matter separates to the top. The clear layer is separated, diluted with the same buffer (1:1) and then adjusted to pH 7.0.
The diluted rumen fluid (10 ml.) is placed in a 25-ml. flask with 40 mg. of the above-described feed, an additional 5 mg. of soybean protein, and the compound to be tested. Four replicate flasks are used per treatment. Two sets of four control flasks each are also employed. A zero-time control and an incubated 16-hour control are used. All test flasks are incubated for 16 hours at 38°C. After incubation the pH is measured, and 25 percent metaphosphoric acid (2 ml.) is added to each flask. The samples are allowed to settle, and the supernatant is analyzed by gas chromatography for propionate, acetate, and butyrate compounds.
Test-compound results are statistically compared with the control results.

[4] = Solubility in organic solvents; format: physicochemical
[5] = test system: Eimeria tenella; assay: Control of coccidiosis in chicks inoculated with Eimeria tenella, drug in feed; format: in vivo; conditions: for Avg. Wt. Gain/Bird: 7 days after inoculation; for Lesion Scores: number of birds at score 0 / Lesion Scores: number of birds at score 1 / Lesion Scores: number of birds at score 2 / Lesion Scores: number of birds at score 3 / Lesion Scores: number of birds at score 4: of 15 birds
Method: A group of 75 one-week-old, healthy, incubator and battery-reared, cross-bred male chicks, of a heavy broiler type was used. The birds were divided into five groups of 15 birds having three replicates of five-bird subgroups each. Each subgroup was reared out of contact with the other subgroups. A first group was held as an untreated healthy control under favorable conditions. A second group was treated as the first group, but was inoculated with coccidiosis by oral administration of a dose containing 10^5 sporulated oocysts of Eimeria tenella. The third, fourth and fifth groups were treated as the second group except that, 24 hours before the said inoculation, their feed was modified by addition of metabolite A-27106 sodium salt in concentrations of 100, 150, and 200 parts per million (ppm), respectively.
Seven days after inoculation, the birds were weighed, sacrificed and examined for evidence of coccidial lesions. Coccidial involvement was expressed on an arbitrary scale of zero to four. Lesion scores indicate the number of birds at each level. Zero indicates no evidence of coccidiosis. One designates the least coccidial involvement that can be seen. Two indicates moderate involvement with little or no hemorrhage and no severe tissue damage. Three indicates hemorrhage, swelling of the caeca, and extensive tissue involvement. Four indicates hemorrhage, a caecal core of clotted blood and debrided epithelial cells. Birds scoring […] or less usually recover if not further infected with coccidia.

[6] = test system: birds; assay: Other studies: palatability and toxicity in birds; format: in vivo
[7] = test system: coccidiosis; assay: Other studies with A-27106 sodium salt alone and combined with monensin in the diet; format: in vivo, birds
Method: Numerous other studies were carried out with metabolite A-27106 sodium salt, both alone and in combination with monensin.

[8] = 0.2 mcg./ml. diluted rumen fluid
[9] = medicated birds with high lesion scores

With CCC1(C2OC(C3OC(O)(COC4OC(CO)C(O)C(O)C4O)C(C)CC3C)CC2C)CCC(C2(C)CCC3(CC(O)C(C)C(C(C)C(OC)C(C)C(=O)O)O3)O2)O1 (stereo not drawn) [Metabolite A-27106] the pKa [1] was 7.2 and the “toxicity compared with monensin” value ([2]; mice) was “less toxic than monensin”.

In the case of CCC1(C2OC(C3OC(O)(COC4OC(CO)C(O)C(O)C4O)C(C)CC3C)CC2C)CCC(C2(C)CCC3(CC(O)C(C)C(C(C)C(OC)C(C)C(=O)O)O3)O2)O1 (stereo not drawn) [metabolite A-27106 sodium salt], the “Butyrate, ratio of concentration in treated to control flasks” value (shortened to “Butyrate, ratio of concentration”) [3, 8] is reported as 0.91, the “Propionate, ratio of concentration in treated to control flasks” value (“Propionate, ratio of concentration” below) [3, 8] is reported as 1.02 and the “Total VFA, ratio of concentration in treated to control flasks” value (“Total VFA, ratio of concentration” below) [3, 8] is reported as 1.07. For the same molecule, the “Butyrate, ratio of concentration” value ([3]; 1 mcg./ml. diluted rumen fluid) was 0.96, the “Propionate, ratio of concentration” value ([3]; 1 mcg./ml. diluted rumen fluid) was 1.42 and the “Total VFA, ratio of concentration” value ([3]; 1 mcg./ml. diluted rumen fluid) was 0.98. For the same molecule, the “Butyrate, ratio of concentration” value ([3]; 5 mcg./ml. diluted rumen fluid) was 0.73, the “Propionate, ratio of concentration” value ([3]; 5 mcg./ml. diluted rumen fluid) was 2.15 and the “Total VFA, ratio of concentration” value ([3]; 5 mcg./ml. diluted rumen fluid) was 1.03. For the same molecule, the solubility ([4]; highly polar solvents) was “readily soluble”, the solubility ([4]; liquid lower alkanes) was “relatively insoluble” and the solubility ([4]; lower aliphatic alcohols) was “soluble”. The solubility ([4]; nonpolar solvents) was “insoluble”, the solubility ([4]; phenol, diethyl ether and acetone) was “partially soluble” and the solubility ([4]; solvents of intermediate polarity) was “varies in solubility”. For the same molecule, the “Avg. Wt. Gain/Bird” value ([5]; 100 ppm in the diet) was 157 Grams, the “Lesion Scores: number of birds at score 0” value (shortened to “Lesion Scores … at score 0”) ([5]; 100 ppm in the diet) was 4 and the “Lesion Scores: number of birds at score 1” value (from here on “Lesion Scores … at score 1”) ([5]; 100 ppm in the diet) was 1. For the same molecule, the “Lesion Scores: number of birds at score 2” value (“Lesion Scores … at score 2” for short) ([5]; 100 ppm in the diet) was 0, the “Lesion Scores: number of birds at score 3” value (“Lesion Scores … at score 3” for short) ([5]; 100 ppm in the diet) was 3 and the “Lesion Scores: number of birds at score 4” value (“Lesion Scores … at score 4” for short) ([5]; 100 ppm in the diet) was 7. For the same molecule, the “Avg. Wt. Gain/Bird” value ([5]; 150 ppm in the diet) was 150 Grams, the “Lesion Scores … at score 0” value ([5]; 150 ppm in the diet) was 3 and the “Lesion Scores … at score 1” value ([5]; 150 ppm in the diet) was 3. The “Lesion Scores … at score 2” value ([5]; 150 ppm in the diet) was 1, the “Lesion Scores … at score 3” value ([5]; 150 ppm in the diet) was 1 and the “Lesion Scores … at score 4” value ([5]; 150 ppm in the diet) was 7. The “Avg. Wt. Gain/Bird” value ([5]; 200 ppm in the diet) was 166 Grams, the “Lesion Scores … at score 0” value ([5]; 200 ppm in the diet) was 5 and the “Lesion Scores … at score 1” value ([5]; 200 ppm in the diet) was 0. For the same molecule, the “Lesion Scores … at score 2” value ([5]; 200 ppm in the diet) was 0, the “Lesion Scores … at score 3” value ([5]; 200 ppm in the diet) was 0 and the “Lesion Scores … at score 4” value ([5]; 200 ppm in the diet) was 10. The condition of birds [5, 9] was “appeared to be in good condition”, the fecal blood [5, 9] was “scanty or absent” and the mice died ([2]; 50 mg./kg.) was “one out of six died”. For the same molecule, the mice died ([2]; 100 mg./kg.) was “three out of six died”, the “toxicity compared with monensin” value [6] was “less toxic than was monensin” and the weight gains ([7]; 0.04 percent versus 0.01 percent in diet) was “no greater weight gains at 0.04 percent than at 0.01%”. The toxicity ([7]; higher rate (0.04 percent)) was “no evidence of toxicity” and the caecal lesions ([7]; higher rate (0.04 percent) versus 0.01 percent) was “fewer caecal lesions”.

With CC[C@@]1([C@@H]2O[C@@H]([C@H]3O[C@@](O)(CO)[C@H](C)C[C@@H]3C)C[C@@H]2C)CC[C@H]([C@]2(C)CC[C@]3(C[C@H](O)[C@@H](C)[C@@H]([C@@H](C)[C@@H](OC)[C@H](C)C(=O)O)O3)O2)O1 [monensin sodium salt, reference compound] the mice died ([2]; 10 mg./kg.) was “one out of six died” and the mice died ([2]; 20 mg./kg.) was “three out of six died”.
